These results are taken from patent US11166959B2, “Isofuranone compounds useful as HPK1 inhibitors” (BRISTOL-MYERS SQUIBB COMPANY, priority 2017, dated 2021).

Structures are written as SMILES.

In experiment [1] the target is T1, HPK1 (Homo sapiens, UniProt Q92918).
T1 construct: purchased SignalChem M23-11G
T1 sequence (Q92918 1-346 limits assumed): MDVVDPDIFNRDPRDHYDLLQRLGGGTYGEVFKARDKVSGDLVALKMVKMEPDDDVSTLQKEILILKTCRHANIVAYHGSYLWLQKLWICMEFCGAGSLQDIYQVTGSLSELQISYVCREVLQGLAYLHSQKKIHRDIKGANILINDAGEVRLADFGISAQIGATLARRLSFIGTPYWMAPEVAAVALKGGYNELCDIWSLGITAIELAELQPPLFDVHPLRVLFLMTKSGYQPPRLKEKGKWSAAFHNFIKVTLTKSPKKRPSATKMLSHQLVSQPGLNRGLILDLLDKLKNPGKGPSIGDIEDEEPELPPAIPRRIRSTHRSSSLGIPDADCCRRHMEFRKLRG
Put plainly: HPK1 Inhibition Assay (kinase reaction, Caliper capillary electrophoresis). It counts as biochemical. The note with it: for IC50: 0.625 nM HPK1, 22 μM ATP, 11 concentrations, read-out: HPK1 IC50; for IRAK4/HPK1 Ratio: ratio of the IRAK4 IC50 value to the HPK1 IC50 value. The method, boiled down:
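Kinase reactions ran 3 h and were stopped with 1 mM EDTA, with enzyme level and time set for at most 20-30% peptide substrate conversion. Phosphorylated and unphosphorylated peptide were separated by capillary electrophoresis to measure conversion. IC50 derived from 11 compound concentrations.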

Experiment [2] addresses T2, IRAK4 (Homo sapiens, UniProt Q9NWZ3).
T2 construct: 1 nM IRAK4 (160-460); purchased SignalChem M24016
T2 sequence (Q9NWZ3 160-460): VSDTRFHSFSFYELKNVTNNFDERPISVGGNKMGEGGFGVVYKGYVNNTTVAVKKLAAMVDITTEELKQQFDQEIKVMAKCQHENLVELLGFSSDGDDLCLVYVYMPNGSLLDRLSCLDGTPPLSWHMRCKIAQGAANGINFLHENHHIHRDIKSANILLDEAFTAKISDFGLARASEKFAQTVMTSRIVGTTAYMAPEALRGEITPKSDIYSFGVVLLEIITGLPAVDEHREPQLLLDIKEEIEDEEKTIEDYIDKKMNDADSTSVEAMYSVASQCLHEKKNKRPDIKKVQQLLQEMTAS
The experiment can be described thus: IRAK4 Inhibition Assay (kinase reaction, Caliper capillary electrophoresis). It counts as biochemical. The note with it: 500 μM ATP, 11 concentrations.

In the case of `CC(C)(CN)CNc1nc(Nc2ccc3c(c2)C(C)(C)OC3=O)ncc1-c1nc(C2CCOCC2)no1` [Example 77, 5-({4-[(3-amino-2,2-dimethylpropyl)amino]-5-[3-(oxan-4-yl)-1,2,4-oxadiazol-5-yl]pyrimidin-2-yl}amino)-3,3-dimethyl-1,3-dihydro-2-benzofuran-1-one], in experiment [1], the IC50 (commonly the concentration at which inhibition is half-maximal) is below 50 nM and the “IRAK4/HPK1 Ratio” value was “C (C=>50)”. In experiment [2], this molecule returned an IC50 of 250 to 1000 nM.
The like results for `CC1(C)OC(=O)c2ccc(Nc3ncc(-c4nc(N5CCOCC5)no4)c(N[C@H](CO)c4ccccc4)n3)cc21` [Example 31, 5-[(4-{[(1S)-2-hydroxy-1-phenylethyl]amino}-5-[3-(morpholin-4-yl)-1,2,4-oxadiazol-5-yl]pyrimidin-2-yl)amino]-3,3-dimethyl-1,3-dihydro-2-benzofuran-1-one] were, in that order, below 50 nM, “C (C=>50)” and 50 to 250 nM.
The matching figures for `CC1(C)OC(=O)c2ccc(Nc3ncc(-c4n[nH]c(=O)o4)c(N[C@H](CO)c4ccccc4)n3)cc21` [Example 52, 5-{2-[(3,3-dimethyl-1-oxo-1,3-dihydro-2-benzofuran-5-yl)amino]-4-{[(1S)-2-hydroxy-1-phenylethyl]amino}pyrimidin-5-yl}-2,3-dihydro-1,3,4-oxadiazol-2-one]: below 50 nM, “C (C=>50)” and 250 to 1000 nM.
The like results for `CC1(C)OC(=O)c2ccc(Nc3ncc(C(=O)NNC(=O)C(C)(O)C(F)(F)F)c(N[C@H](CO)c4ccccc4)n3)cc21` (stereo partly drawn) [Example 64, 2-[(3,3-dimethyl-1-oxo-1,3-dihydro-2-benzofuran-5-yl)amino]-4-{[(1S)-2-hydroxy-1-phenylethyl]amino}-N′-(3,3,3-trifluoro-2-hydroxy-2-methylpropanoyl)pyrimidine-5-carbohydrazide] were, in that order, 50 to 250 nM, “B (B=10 to 50)” and 250 to 1000 nM.
Consider `CCn1nc(-c2cnc(Nc3ccc4c(c3)C(C)(C)OC4=O)nc2N[C@H](CO)c2ccccc2)oc1=O` [Example 53, 5-{2-[(3,3-dimethyl-1-oxo-1,3-dihydro-2-benzofuran-5-yl)amino]-4-{[(1S)-2-hydroxy-1-phenylethyl]amino}pyrimidin-5-yl}-3-ethyl-2,3-dihydro-1,3,4-oxadiazol-2-one], for which, in experiment [1], the IC50 was below 50 nM and the “IRAK4/HPK1 Ratio” value is reported as “C (C=>50)”. In addition, in experiment [2], the IC50 is 250 to 1000 nM.
The like results for `Cc1cnc(CNC(=O)c2cnc(Nc3ccc4c(c3)C(C)(C)OC4=O)nc2N[C@H](CO)c2ccccc2)cn1` [Example 20, 2-[(3,3-dimethyl-1-oxo-1,3-dihydro-2-benzofuran-5-yl)amino]-4-{[(1S)-2-hydroxy-1-phenylethyl]amino}-N-[(5-methylpyrazin-2-yl)methyl]pyrimidine-5-carboxamide] were, in that order, below 50 nM, “B (B=10 to 50)” and 250 to 1000 nM.
